From patent publication US20120309739A1, “AKT / PKB INHIBITORS” (ALMAC DISCOVERY LIMITED, priority 2009, published 2012)
Structures can show the parent of a compound that is named as a salt.

Key:
AKT3 = target: T1, AKT3 (Homo sapiens, UniProt Q9Y243); test: AKT Kinase Assay (IMAP fluorescent polarisation) vs AKT3; format: biochemical; conditions: activated AKT3, FAM Crosstide substrate
T1 construct: purchased SignalChem
Procedure, shortened: (§1)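 Each activated AKT isoform, at a pre-determined linear-range concentration, was pre-incubated 45 min at room temperature with compound in a fourteen-point half-log series. ATP plus 5′FAM-Crosstide then reacted 1 h; IMAP binding reagent stopped it (1 h). Fluorescence polarisation (ex 485/em 528 nm) versus vehicle gave IC50 by non-linear regression.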

AKT2 = target: T2, AKT2 (Homo sapiens, UniProt P31751); test: AKT Kinase Assay (IMAP fluorescent polarisation) vs AKT2; format: biochemical; conditions: activated AKT2, FAM Crosstide substrate
T2 construct: purchased SignalChem
Procedure, shortened: as §1

[1] = system: PC3 and/or LnCaP cell lines; test: In vitro cell proliferation assay (Cell Titre Glo); format: cell-based; conditions: Homo sapiens, 72 hours, read-out: inhibition of proliferation IC50
Procedure: Testing of the compounds was also performed using in vitro cell proliferation assays:
Cell Titre Glo (Promega) is a highly sensitive homogeneous reagent used to determine the viability of cells. The reagent uses a stable form of luciferase to measure ATP as an output of viability. The luminescent values generated in the assay are directly proportional to the number of viable cells in your assay.
The following materials were used: White, clear bottomed 96 well assay plates (Costar); Cell titre Glo reagents; LnCaP (ECACC) cells grown in RPMI medium (Invitrogen) supplemented with 10 mM HEPES (Invitrogen), 1 mM Sodium pyruvate (Invitrogen), 2 mM L-Glutamine (Invitrogen) and 10% Foetal calf serum (Invitrogen); PC3 (ECACC) cells grown in RPMI medium supplemented with 10% Foetal calf serum (Invitrogen); Trypsin (Invitrogen); PBS (Invitrogen); Biotek Synergy 4 Hybrid Plate reader; 96 well plate shaker (Stuart SSL5); Eppendorf 5414 desk-top centrifuge; Beckman Coulter cell counter Z1 single threshold system.
Prostate cell lines, PC3 and LnCaP, were washed, detached and re-suspended in their respective fresh media. The cells were pelleted by centrifugation (Eppendorf 5414) and spent supernatant discarded. The cells were re-suspended by vortex mixing, counted and seeded into clear bottom white 96 well plates at a density of 5000 cells per well. The cells were incubated (Sanyo) overnight at 37° C. ([…]/5% CO2), and next day treated with increasing concentrations of test compound formulated in fresh medium. The plates were returned to the incubator for 72 hours.
Cell Titre Glo (Promega) was prepared by mixing the supplied reagents as per manufacturer's instructions and left to stand at room temperature. The cell plates were removed from the incubator and 80 μl of the Cell Titre Glo solution added to each well. The plate was shaken for five minutes to ensure homogenous mixing of reagents and cells, then left to stand for ten minutes at room temperature.
The cell viability post compound treatment was determined by the luminescent intensity emitted from the drug treated wells in the plate. In brief, the assay plate was placed in the Biotex Synergy 4 Hybrid plate reader and the luminescence read in each well. The compound treated wells were compared to vehicle treated wells and the % inhibition of cell viability calculated.
The data was analysed using GraphPad Prism, with IC50 values generated using non-linear regression of the data set.

AKT1 = target: T3, AKT1 (Homo sapiens, UniProt P31749); test: AKT Kinase Assay (IMAP fluorescent polarisation) vs AKT1; format: biochemical; conditions: activated AKT1, FAM Crosstide substrate
T3 construct: purchased SignalChem
Procedure, shortened: as §1

AKT phosphorylation = test: Phosphorylation status of AKT/PI3K pathway via western blotting; format: cell-based; conditions: for 48 h at 10 μM
Description: Analysis of Compound Effects on AKT Signalling Pathways
Phosphorylation status of various members of the AKT/PI3K pathway were investigated via western blotting.
Materials Required for this Assay
20× Running buffer (Invitrogen); Rainbow marker ladder (GE Healthcare); Reducing buffer (Invitrogen); 20× Transfer buffer (Invitrogen); 4-12% Bis-Tris Gels (Invitrogen); Filter paper (Whatman); Nitrocellulose (Amersham); ECL plus detection reagents (GE Healthcare); Radiographic film (Kodak); Biorad Protein determination reagent (Biorad); AKT pathway signalling antibodies (Cell Signalling)
LnCaP and PC3 cell lines were washed, detached and re-suspended in fresh medium. They were seeded in 90 mm^2 dishes and incubated overnight ([…]/5% CO2) to allow adherence. […]
The medium was removed and the cells placed on ice and washed in PBS. […] The resultant supernatant was assayed for protein content using the Bradford method (Biorad) and equal quantities of protein calculated and heated in sample reducing buffer to 95° C. for ten minutes. […]
The membranes were used to determine difference in total AKT, pSer473 AKT, pGSK3β and total GSK3β (all sourced from Cell Signalling). […] The membranes were washed three times in PBS and incubated with the respective secondary antibodies (Sigma Aldrich) for two hours and the proteins were detected using ECL plus detection reagents (GE Healthcare).

T3 sequence (P31749 whole entry): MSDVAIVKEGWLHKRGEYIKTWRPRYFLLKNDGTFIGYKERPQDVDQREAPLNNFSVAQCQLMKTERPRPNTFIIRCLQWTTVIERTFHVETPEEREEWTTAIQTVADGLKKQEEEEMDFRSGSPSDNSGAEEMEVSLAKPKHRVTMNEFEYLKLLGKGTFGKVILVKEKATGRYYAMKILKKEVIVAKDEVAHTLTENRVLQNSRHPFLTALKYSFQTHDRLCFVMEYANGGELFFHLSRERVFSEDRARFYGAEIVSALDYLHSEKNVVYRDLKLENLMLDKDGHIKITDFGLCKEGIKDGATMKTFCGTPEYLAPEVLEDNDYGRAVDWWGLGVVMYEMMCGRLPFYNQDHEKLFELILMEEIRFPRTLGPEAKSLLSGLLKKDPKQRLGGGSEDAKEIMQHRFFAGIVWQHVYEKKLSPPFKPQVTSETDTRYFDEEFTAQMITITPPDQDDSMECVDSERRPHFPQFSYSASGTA
T1 sequence (Q9Y243 whole entry): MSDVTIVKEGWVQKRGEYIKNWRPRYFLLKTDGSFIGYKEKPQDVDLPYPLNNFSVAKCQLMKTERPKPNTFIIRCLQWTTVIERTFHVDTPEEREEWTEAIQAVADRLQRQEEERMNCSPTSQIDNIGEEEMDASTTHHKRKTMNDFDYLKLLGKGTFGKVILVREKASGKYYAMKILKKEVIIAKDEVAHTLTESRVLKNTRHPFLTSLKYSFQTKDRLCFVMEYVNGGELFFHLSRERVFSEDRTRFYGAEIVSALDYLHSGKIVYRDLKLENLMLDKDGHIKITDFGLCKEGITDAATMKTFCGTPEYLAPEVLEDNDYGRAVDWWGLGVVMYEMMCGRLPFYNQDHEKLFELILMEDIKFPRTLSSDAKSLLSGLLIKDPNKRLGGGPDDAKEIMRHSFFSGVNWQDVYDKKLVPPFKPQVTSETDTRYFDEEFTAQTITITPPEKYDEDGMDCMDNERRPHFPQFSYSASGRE
T2 sequence (P31751 whole entry): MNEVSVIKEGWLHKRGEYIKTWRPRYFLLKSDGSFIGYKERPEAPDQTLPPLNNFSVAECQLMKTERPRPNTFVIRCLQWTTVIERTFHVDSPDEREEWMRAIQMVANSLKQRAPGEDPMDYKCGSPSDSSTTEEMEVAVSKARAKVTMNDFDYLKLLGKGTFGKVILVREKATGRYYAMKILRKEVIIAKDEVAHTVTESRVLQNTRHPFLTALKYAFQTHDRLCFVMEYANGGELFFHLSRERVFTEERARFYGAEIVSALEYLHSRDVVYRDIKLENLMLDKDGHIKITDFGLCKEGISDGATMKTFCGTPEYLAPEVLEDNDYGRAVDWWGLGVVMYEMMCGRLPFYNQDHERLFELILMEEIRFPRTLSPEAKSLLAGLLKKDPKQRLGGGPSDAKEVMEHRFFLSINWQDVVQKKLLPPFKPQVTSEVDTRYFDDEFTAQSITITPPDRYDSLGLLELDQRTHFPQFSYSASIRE

SMILES	IC50 (AKT3)	IC50 (AKT2)	IC50 [1]	IC50 (AKT1)	inhibition of AKT phosphorylation (AKT phosphorylation)
NC1(c2ccc(-c3oc4nccnc4c3-c3ccccc3)cc2)CCC1 [Example 10, 1-(4-(7-Phenylfuro[2,3-b]pyrazin-6-yl)phenyl)cyclobutanamine.HCl]	> 10 µM	1 to 10 µM	< 10 µM	1 to 10 µM	–
COc1nc(OCCO)nc2oc(-c3ccc(C4(N)CCC4)cc3)c(-c3ccccc3)c12 [Example 36, 2-((6-(4-(1-Aminocyclobutyl)phenyl)-4-methoxy-5-phenylfuro[2,3-d]pyrimidin-2-yl)oxy)ethanol]	> 10 µM	0.1 to 1 µM	< 10 µM	≤ 0.1 µM	–
COc1nc(N2CCNCC2)nc2oc(-c3ccc(C4(N)CCC4)cc3)c(-c3ccccc3)c12 [Example 37, 1-(4-(4-Methoxy-5-phenyl-2-(piperazin-1-yl)furo[2,3-d]pyrimidin-6-yl)phenyl)cyclobutanamine]	1 to 10 µM	0.1 to 1 µM	< 10 µM	0.1 to 1 µM	–
NC1(c2ccc(-c3oc4ccncc4c3-c3ccccc3)cc2)CCC1 [Example 1, 1-(4-(3-phenylfuro[3,2-c]pyridin-2-yl)phenyl)cyclobutanamine]	1 to 10 µM	1 to 10 µM	< 10 µM	1 to 10 µM	–
CSc1nc2oc(-c3ccc(C4(N)CCC4)cc3)c(-c3ccccc3)c2c(=O)[nH]1 [Example 15, 6-(4-(1-Aminocyclobutyl)phenyl)-2-(methylthio)-5-phenylfuro[2,3-d]pyrimidin-4(3H)-one]	1 to 10 µM	0.1 to 1 µM	–	0.1 to 1 µM	inhibition of AKT phosphorylation
NC1(c2ccc(-c3oc4nc[nH]c(=O)c4c3-c3ccccc3)cc2)CCC1 [Example 12, 6-(4-(1-Aminocyclobutyl)phenyl)-5-phenylfuro[2,3-d]pyrimidin-4(3H)-one]	1 to 10 µM	1 to 10 µM	< 10 µM	1 to 10 µM	–
CSc1ncc2c(-c3ccccc3)c(-c3ccc(C4(N)CCC4)cc3)oc2n1 [Example 24, 1-(4-(2-(Methylthio)-5-phenylfuro[2,3-d]pyrimidin-6-yl)phenyl)cyclobutanamine]	> 10 µM	0.1 to 1 µM	< 10 µM	1 to 10 µM	–
CNc1nc(OC)c2c(-c3ccccc3)c(-c3ccc(C4(N)CCC4)cc3)oc2n1 [Example 32, 6-(4-(1-Aminocyclobutyl)phenyl)-4-methoxy-N-methyl-5-phenylfuro[2,3-d]pyrimidin-2-amine]	> 10 µM	0.1 to 1 µM	< 10 µM	≤ 0.1 µM	–
CN(C)c1nc(NCCO)nc2oc(-c3ccc(C4(N)CCC4)cc3)c(-c3ccccc3)c12 [Example 70, 2-(6-(4-(1-Aminocyclobutyl)phenyl)-4-(dimethylamino)-5-phenylfuro[2,3-d]pyrimidin-2-ylamino)ethanol, HCl]	> 10 µM	1 to 10 µM	–	1 to 10 µM	–
COc1nc(NC(C)=O)nc2oc(-c3ccc(C4(N)CCC4)cc3)c(-c3ccccc3)c12 [Example 48, N-(6-(4-(1-Aminocyclobutyl)phenyl)-4-methoxy-5-phenylfuro[2,3-d]pyrimidin-2-yl)acetamide]	0.1 to 1 µM	0.1 to 1 µM	–	≤ 0.1 µM	–
COc1nccc2c(I)c(-c3ccc(C4(N)CCC4)cc3)oc12 [Example 127, 1-(4-(3-Iodo-7-methoxyfuro[2,3-c]pyridin-2-yl)phenyl)cyclobutanamine]	> 10 µM	1 to 10 µM	–	> 10 µM	–
Cc1cnc2oc(-c3ccc(C4(N)CCC4)cc3)c(-c3ccccc3)c2n1 [Example 149, 1-(4-(2-Methyl-7-phenylfuro[2,3-b]pyrazin-6-yl)phenyl)cyclobutanamine]	> 10 µM	1 to 10 µM	–	0.1 to 1 µM	–
COCCNc1nc2oc(-c3ccc(C4(N)CCC4)cc3)c(-c3ccccc3)c2c(=O)n1C [Example 83, 6-(4-(1-Aminocyclobutyl)phenyl)-2-(2-methoxyethylamino)-3-methyl-5-phenylfuro[2,3-d]pyrimidin-4(3H)-one]	1 to 10 µM	1 to 10 µM	–	0.1 to 1 µM	–
NC1(c2ccc(-c3oc4nc(NCCO)[nH]c(=O)c4c3-c3ccccc3)cc2)CCC1 [Example 76, 6-(4-(1-Aminocyclobutyl)phenyl)-2-((2-hydroxyethyl)amino)-5-phenylfuro[2,3-d]pyrimidin-4(3H)-one]	1 to 10 µM	≤ 0.1 µM	–	≤ 0.1 µM	–
NC1(c2ccc(-c3oc4ccn(CC(F)(F)F)c(=O)c4c3-c3ccccc3)cc2)CCC1 [Example 109, 2-(4-(1-Aminocyclobutyl)phenyl)-3-Phenyl-5-(2,2,2-trifluoroethyl)furo[3,2-c]pyridin-4(5H)-one, HCl]	> 10 µM	≤ 0.1 µM	–	1 to 10 µM	–
